Test results reported in patent US20040019118A1, “NMDA receptor antagonists and their use in inhibiting abnormal hyperphosphorylation of microtubule associated protein tau” (priority 2002, published 2004).
Entries after “also recorded” stand apart in the source; their conditions may differ.

Columns and labels:
CaMKII = CaMKII activity in extracts of treated hippocampal slice cultures; format: cell-based, rat
Description: (§1) Organotypic cultures of rat hippocampal slices were prepared from 20-30 day old Wistar rats and cultured with the interface method as described previously (Stoppini, et al. 1991; Bahr, et al. 1995; Zhongrin, et al. 2000). The rats were anesthetized with ketamine (100 mg/kg body weight) and decapitated and the hippocampi were dissected out and sliced into 400 um coronal sections by a McIllwain tissue chopper. Select slices with uninterrupted bright transparent neuronal layers were plated, 1-3 slices/filter, onto Millicell CM filters (Millipore, Bedford, Mass.). For the first 2 days in vitro (DIV) cultures were maintained in 25% horse serum, 50% Basal Media-Eagle (BEM), 25% Eagle's Balanced Salt Solution (EBSS), 25 mM HEPES, 1 mM glutamine, 28 mM glucose, pH 7.2, at 32° C. in a 5% CO2 humidified atmosphere. The slice cultures were then switched to 25% horse serum, 50% BEM and EBSS modified so that the potassium concentration was 2.66 mM, for another 5 DIV. After 7 DIV, the cultures were maintained in physiological potassium containing 5% horse serum medium at 35° C. for at least 20 days before any treatment was applied. When the slices were treated, the reagents were applied into the culture medium. At different time points, the slices collected with a brush were washed twice in homogenizing buffer (50 mM HEPES, pH 7.0, 10 mM β-merceptoethanol [BME], 1 mM EDTA, 1 mM EGTA, 0.1 mM phenylmethyl sulfonyl fluoride [PMSF], 2.0 mM benzamidine and 2.0 μg/ml each of aprotinin, leupeptin and pepstatin) and homogenized at 4° C. using a Teflon-glass homogenizer. The homogenate was then divided into two parts, one was centrifuged at 16000×g for 15 min and the supernatant was used to assay activities of PP-2A and PP-1. The rest of the homogenate was diluted 1:1 with a phosphatase inhibitor cocktail (20 mM β-glycerophosphate, 2 mM Na3VO4 and 100 mM NaF, pH 7.0) and either used for Western blots or centrifuged at 16000×g for 15 min and the resulting supernatant used to determine the kinase activities.
CaMKII activity was measured in 25 μl of buffer containing 50 mM HEPES, pH 7.5, 10 mM MgCl2, 2.0 mM CaCl2, 10 mM BME, 10 μg/ml calmodulin (CaM), 20 μM syntide (Sigma, St Louis Mo., USA), 0.06 mg/ml slice extract and 200 μM [γ^32P]ATP. The reaction was initiated by adding [γ32p] ATP. After incubation for 10 min at 30° C., 10 μl reaction mixture was removed and spotted on to phosphocellulose membrane. The membrane was then washed five times in 1% phosphoric acid to remove non-protein incorporated ^32P, dried and counted by Cerenkov radiation. The activity of PKA was determined as above except the reaction mixture contained 70 mM NaHPO4, pH 6.8, 14 mM MgCl2, 1.4 mM EDTA, 30 μM malantide (Sigma, St Louis, Mo., USA), 200 μM [γ^32p] ATP and 0.06 mg/ml slice extract.

PP-2A = target: T1, PP-2A (Rattus norvegicus, UniProt P63331); assay: PP-2A activity in extracts of treated hippocampal slice cultures; format: cell-based
T1 construct: from tissue; host or cells: organotypic culture of adult rat hippocampal slices; 16,000xg extract
T1 sequence (P63331 whole entry): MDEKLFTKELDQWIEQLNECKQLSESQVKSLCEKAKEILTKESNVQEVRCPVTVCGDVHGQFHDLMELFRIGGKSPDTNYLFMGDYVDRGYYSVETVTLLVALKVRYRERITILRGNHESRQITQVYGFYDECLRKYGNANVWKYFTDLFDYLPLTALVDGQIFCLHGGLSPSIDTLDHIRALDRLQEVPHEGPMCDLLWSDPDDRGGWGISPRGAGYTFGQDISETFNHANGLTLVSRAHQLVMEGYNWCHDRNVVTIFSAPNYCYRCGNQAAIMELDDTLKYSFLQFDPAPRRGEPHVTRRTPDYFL
Description: as §1
Activities of PP-2A and PP-1 were assayed towards [^32P] phosphorylase-a as a substrate as described previously (Gong, et al. 1994). The phosphatase activity was assayed in 20 μl of reaction mixture containing 50 mM Tris, pH 7.0, 10 mM BME, 0.1 mM EDTA, 7.5 mM caffeine, 7.5 ng/μl [^32P]phosphorylase-a and 0.06 mg/ml slice culture extract. The reaction was started by adding ^32P-phosphorylase-a. After incubation for 30 min at 30° C., 7 μl of the reaction mixture was spotted on to 31 ETCHR chromatography paper which had been prespotted with 10 μl stop solution (4 mM ATP+20% TCA). Then the ^32p released was separated from the protein-incorporated ^32P by paper chromatography in 5% TCA and 0.2 M NaCl, paper strips dried, cut and counted by Cerenkov radiation. A PP-1 specific inhibitor, inhibitor-1 (Hitken, et al. 1982) was included in the assays for PP-2A activity. PP-1 activity was calculated by subtracting the PP-2A activity from the total phosphorylase-a phosphatase activity (PP-1/PP-2A) assayed in the absence of inhibitor-1.

MAPK = MAPK activity in extracts of treated hippocampal slice cultures; format: cell-based, rat
Description: as §1, with “The” for “Organotypic cultures of rat hippocampal slices were prepared from 20-30 day old Wistar rats and cultured with the interface method as described previously (Stoppini, et al. 1991; Bahr, et al. 1995; Zhongrin, et al. 2000). The”, “For the first 2 days in vitro (DIV) cultures were maintained in 25% horse serum, 50% Basal Media-Eagle (BEM), 25% Eagle's Balanced Salt Solution (EBSS), 25 mM HEPES, 1 mM glutamine, 28 mM glucose, pH 7.2, at 32° C. in a 5% CO2 humidified atmosphere. The slice cultures were then switched to 25% horse serum, 50% BEM and EBSS modified so that the potassium concentration was 2.66 mM, for another 5 DIV.” left out
Immobilized protein G (Pierce, Rockford, Ill.), 20 μl, was mixed in 50 mM Tris, pH 7.4, 150 mM NACl, 10 mM NaF, 1.0 mM Na3VO4, 2.0 mM EGTA, 1 mM PMSF, 5 μg/ml leupeptin, 5 μg/ml aprotinin, 2 μg/ml pepstatin, 25 μg/ml phosphoramidon. After incubation at 4° C. overnight, the mixture was centrifuged and the beads were washed three times. The beads were then resuspended in 50 mM Tris, pH 7.4, containing 10 mM MgCl2. MAPK substrate peptide (UBI, Lake Placid, N.Y.) was employed for the MAPK assay. […]

tau = assay: Tau phosphorylation by radioimmuno-dot-blots and 125I-Western blots of slice homogenates; format: cell-based, rat; details: 0.3 mM glutamate, 1 h
Description: as §1, with “The” for “Organotypic cultures of rat hippocampal slices were prepared from 20-30 day old Wistar rats and cultured with the interface method as described previously (Stoppini, et al. 1991; Bahr, et al. 1995; Zhongrin, et al. 2000). The”, “For the first 2 days in vitro (DIV) cultures were maintained in 25% horse serum, 50% Basal Media-Eagle (BEM), 25% Eagle's Balanced Salt Solution (EBSS), 25 mM HEPES, 1 mM glutamine, 28 mM glucose, pH 7.2, at 32° C. in a 5% CO2 humidified atmosphere. The slice cultures were then switched to 25% horse serum, 50% BEM and EBSS modified so that the potassium concentration was 2.66 mM, for another 5 DIV.” left out
Triplicate samples of each homogenate were applied to nitrocellulose membrane (Schleicher and Schuell, Keene, N.H.) and dried at 37° C.

Row | SMILES | CaMKII activity after replacement of glutamate (CaMKII; after 0.3 mM glutamate, fresh medium with or without 10 μM Memantine or 15 μM MK801) | effect on PP-2A activity (PP-2A; after 0.3 mM glutamate 1 h, 10 μM Memantine or 15 μM MK801) | effect on MAP kinase activity (MAPK; after 0.3 mM glutamate, 10 μM Memantine or 15 μM MK801) | CaMKII activity as % of control (CaMKII; 0.3 mM glutamate, 1 h) [%] | change in CaMKII activity (CaMKII; 0.3 mM glutamate, 1 h) | phosphorylation of tau at Ser-262 (tau) | change in PP-2A activity (PP-2A; 0.3 mM glutamate, 1 h) | change in MAPK activity (MAPK; 0.3 mM glutamate, 1 h)
1 | C[C@]12N[C@H](Cc3ccccc31)c1ccccc12 [MK801] | restored the CaMKII activity to normal level | no effect | no effect |  |  |  |  | 
2 | N[C@@H](CCC(=O)O)C(=O)O [glutamate] |  |  |  | ~180 | marked increase | increased markedly | did not induce any detectable change; also recorded: not accompanied by any changes; also recorded: without any effect | did not induce any detectable change; also recorded: not accompanied by any changes; also recorded: without any effect
